Assay results from ChEMBL document CHEMBL5247641, “Discovery of Potent DYRK2 Inhibitors with High Selectivity, Great Solubility, and Excellent Safety Properties for the Treatment of Prostate Cancer” (J Med Chem, 2023).
pIC50: −log10 of the molar value. The source made the active and inactive calls. The calls are words filed in the database; no cut-off is given here.

Columns and labels:
CWR22R [1] = assay: Induction of cell cycle arrest in human 22Rv1 cells assessed as accumulation of cells at S phase at 2 uM incubated for 24 hrs by propidium iodide based flow cytometric analysis (Rvb=20.51 %); assay type: functional
CWR22R [2] = assay: Induction of cell cycle arrest in human 22Rv1 cells assessed as accumulation of cells at S phase at 4 uM incubated for 24 hrs by propidium iodide based flow cytometric analysis (Rvb=20.51 %); assay type: functional
DU-145 [3] = assay: Antitumor activity against human DU-145 xenografted in BALB/c nude mouse as upregulation of p27 level in tumor at 100 to 200 mg/kg,po administrated once daily for 21 days by Western blot analysis; assay type: functional, organism-based; settings: dose 100-200 mg/kg, time 21.0 day
[4] = Acute toxicity in ICR mouse assessed as change in kidney weight at 1000 to 10000 mg/kg,po and measured after 14 days; assay type: organism-based; settings: in vivo, 336 h, dose 1000-10000 mg/kg, time 14 day
[5] = Cytotoxicity against human RWPE-1 cells assessed as inhibition of cell proliferation incubated for 3 days by CCK-8 assay; assay type: toxicity, cell-based
CWR22R [6] = assay: Induction of cell cycle arrest in human 22Rv1 cells assessed as accumulation of cells at S phase at 1 uM incubated for 24 hrs by propidium iodide based flow cytometric analysis (Rvb=20.51 %); assay type: functional
[7] = Toxicity in BALB/c nude mouse xenografted with human DU-145 assessed as body weight change at 100 to 200 mg/kg,po qd administrated once daily for 21 days; assay type: organism-based; settings: in vivo, 504 h, dose 100-200 mg/kg, time 21 day
[8] = target: T1, Dual specificity tyrosine-phosphorylation-regulated kinase 2 (Homo sapiens) (UniProt Q92630); assay: Inhibition of DYRK2 in human 22Rv1 cells assessed as reduction in 4E-BP1 phosphorylation at 2 to 8 uM incubated for 24 hrs by Western blot analysis; assay type: cell-based; settings: dose 2-8 µM
T1 sequence (whole entry): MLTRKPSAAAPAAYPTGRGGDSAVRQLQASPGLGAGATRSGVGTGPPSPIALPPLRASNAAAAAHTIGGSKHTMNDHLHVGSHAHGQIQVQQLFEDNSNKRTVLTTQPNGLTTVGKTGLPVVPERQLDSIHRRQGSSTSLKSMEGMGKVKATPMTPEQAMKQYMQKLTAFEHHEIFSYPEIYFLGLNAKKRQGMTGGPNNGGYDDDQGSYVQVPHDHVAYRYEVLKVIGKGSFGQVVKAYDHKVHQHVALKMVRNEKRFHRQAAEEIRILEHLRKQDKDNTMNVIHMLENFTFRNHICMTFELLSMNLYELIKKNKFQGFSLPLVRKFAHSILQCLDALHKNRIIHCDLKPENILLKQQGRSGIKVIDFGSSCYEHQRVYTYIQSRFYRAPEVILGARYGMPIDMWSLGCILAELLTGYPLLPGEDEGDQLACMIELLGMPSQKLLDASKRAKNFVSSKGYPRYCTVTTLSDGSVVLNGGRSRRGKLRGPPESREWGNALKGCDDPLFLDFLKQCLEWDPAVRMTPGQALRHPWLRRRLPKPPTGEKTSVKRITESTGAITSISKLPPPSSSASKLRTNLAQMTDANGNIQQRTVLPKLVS

[9] = Acute toxicity in ICR mouse assessed as change in liver weight at 1000 to 10000 mg/kg,po and measured after 14 days; assay type: organism-based; settings: in vivo, 336 h, dose 1000-10000 mg/kg, time 14 day
[10] = Acute toxicity in ICR mouse assessed as appearance of lesions in liver at 5000 to 10000 mg/kg,po and measured after 14 days by H and E staining based microscopic analysis; assay type: organism-based; settings: in vivo, 336 h, dose 5000-10000 mg/kg, time 14 day
CWR22R [11] = assay: Induction of apoptosis in human 22Rv1 cells assessed as apoptotis rate at 2 uM incubated for 24 hrs by Annexin V-FITC and PI staining based flow cytometry (Rvb= 3.08%); assay type: functional
DU-145 [12] = assay: Antiproliferative activity against human DU-145 cells assessed as inhibition of cell proliferation incubated for 3 days by CCK-8 assay; assay type: functional, cell-based; settings: DU-145, 72 h
DU-145 [13] = assay: Antitumor activity against human DU-145 xenografted in BALB/c nude mouse as upregulation of cleaved PARP level in tumor at 100 to 200 mg/kg,po administrated once daily for 21 days by Western blot analysis; assay type: functional, organism-based; settings: dose 100-200 mg/kg, time 21.0 day
CWR22R [14] = assay: Induction of cell cycle arrest in human 22Rv1 cells assessed as accumulation of cells at G2 phase at 1 uM incubated for 24 hrs by propidium iodide based flow cytometric analysis (Rvb=24.21 %); assay type: functional
[15] = Acute toxicity in ICR mouse assessed as appearance of lesions in kidney at 5000 to 10000 mg/kg,po and measured after 14 days by H and E staining based microscopic analysis; assay type: organism-based; settings: in vivo, 336 h, dose 5000-10000 mg/kg, time 14 day
DU-145 [16] = assay: Antimigratory activity against human DU-145 cells assessed as inhibition of cell migration at 1 to 8 uM incubated for 24 hrs by transwell migration assay; assay type: functional, cell-based; settings: dose 1-8 µM
[17] = Acute toxicity in ICR mouse assessed as abnormal body weight change at 1000 to 10000 mg/kg,po and measured upto 14 days; assay type: organism-based; settings: in vivo, 336 h, dose 1000-10000 mg/kg, time < 14 day
DU-145 [18] = assay: Induction of apoptosis in human DU-145 cells assessed as apoptotis rate at 8 uM incubated for 24 hrs by Annexin V-FITC and PI staining based flow cytometry (Rvb= 4.36%); assay type: functional
[19] = Acute toxicity in ICR mouse assessed as change in spleen weight at 1000 to 10000 mg/kg,po and measured after 14 days; assay type: organism-based; settings: in vivo, 336 h, dose 1000-10000 mg/kg, time 14 day
[20] = Thermodynamic water solubility of compound by HPLC anlaysis; assay type: physicochemical; settings: read-out: Therm_solubility
DU-145 [21] = assay: Antitumor activity against human DU-145 xenografted in BALB/c nude mouse as downregulation of c-MYC level in tumor at 100 to 200 mg/kg,po administrated once daily for 21 days by Western blot analysis; assay type: functional, organism-based; settings: dose 100-200 mg/kg, time 21.0 day
CWR22R [22] = assay: Antiproliferative activity against human 22Rv1 cells assessed as inhibition of cell proliferation incubated for 3 days by CCK-8 assay; assay type: functional, cell-based; settings: 22Rv1, 72 h
CWR22R [23] = assay: Antiproliferative activity against human 22Rv1 cells assessed as cell growth inhibition at 2 to 8 uM incubated for 5 days by microplate reader analysis; assay type: functional, cell-based; settings: dose 2-8 µM, time 5.0 day
DU-145 [24] = assay: Antiproliferative activity against human DU-145 cells assessed as cell growth inhibition at 2 to 8 uM incubated for 5 days by microplate reader analysis; assay type: functional, cell-based; settings: dose 2-8 µM, time 5.0 day
DU-145 [25] = assay: Induction of apoptosis in human DU-145 cells assessed as increase in cleaved PARP level at 2 to 8 uM incubated for 24 hrs by Western blot analysis; assay type: functional, cell-based; settings: dose 2-8 µM
[26] = Acute toxicity in ICR mouse assessed as appearance of lesions in heart at 5000 to 10000 mg/kg,po and measured after 14 days by H and E staining based microscopic analysis; assay type: organism-based; settings: in vivo, 336 h, dose 5000-10000 mg/kg, time 14 day
CWR22R [27] = assay: Induction of cell cycle arrest in human 22Rv1 cells assessed as accumulation of cells at G1 phase at 4 uM incubated for 24 hrs by propidium iodide based flow cytometric analysis (Rvb= 55.28%); assay type: functional
CWR22R [28] = assay: Induction of cell cycle arrest in human 22Rv1 cells assessed as accumulation of cells at G1 phase at 1 uM incubated for 24 hrs by propidium iodide based flow cytometric analysis (Rvb= 55.28%); assay type: functional

For `Cl.O=C(c1ccc(Nc2ncc(F)c(-c3ccc4scnc4c3)n2)nc1)N1CCNCC1`, the Activity (CWR22R [1]) was 14.24%, the Activity (CWR22R [2]) was 13.85% and the Activity (DU-145 [3]) was “Active”. For the same compound, the Activity [4] was “Non-Toxic”, the IC50 at 3 days [5] was 25000 nM and the Activity (CWR22R [6]) was 16.48%. For the same compound, the Activity [7] was “Non-Toxic”, the inhibition [8] was “Active” and the Activity [9] was “Non-Toxic”. The Activity [10] was “Non-Toxic”, the Activity (CWR22R [11]) was 11.25% and the pIC50 (DU-145 [12]) was 5.90. The Activity (DU-145 [13]) was “Active”, the Activity (CWR22R [14]) was 23.01% and the Activity [15] was “Non-Toxic”. The Activity (DU-145 [16]) was “Active”, the Activity [17] was “Non-Toxic” and the Activity (DU-145 [18]) was 11.98%. The Activity [19] was “Non-Toxic”, the solubility thermodynamic [20] was 29.5 mg/mL and the Activity (DU-145 [21]) was “Active”. For the same compound, the pIC50 (CWR22R [22]) was 5.59, the Activity (CWR22R [23]) was “Active” and the Activity (DU-145 [24]) was “Active”. The Activity (DU-145 [25]) was “Active”, the Activity [26] was “Non-Toxic” and the Activity (CWR22R [27]) was 66.73%. The Activity (CWR22R [28]) was 60.51%.
